Laboratory results from PubChem BioAssay (NCI).
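Five compound concentrations were applied to cells in 96-well plates for 48 hours; endpoints were derived by simple linear interpolation of the resulting dose-response curve. The concentration for full growth arrest is given as TGI.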

Columns and labels:
Assay in all cases: growth of human tumour cells (NCI), 48 h
NCI-H23 lung = test system: NCI-H23 lung
T-47D breast = test system: T-47D breast
RXF 393 renal = test system: RXF 393 renal
SNB-75 CNS = test system: SNB-75 CNS
SK-OV-3 ovarian = test system: SK-OV-3 ovarian
UO-31 renal = test system: UO-31 renal
DU-145 prostate = test system: DU-145 prostate
UACC-257 melanoma = test system: UACC-257 melanoma
OVCAR-4 ovarian = test system: OVCAR-4 ovarian
TK-10 renal = test system: TK-10 renal
SNB-19 CNS = test system: SNB-19 CNS
NCI-H522 lung = test system: NCI-H522 lung
A498 renal = test system: A498 renal
HT29 colon = test system: HT29 colon
U251 CNS = test system: U251 CNS
PC-3 prostate = test system: PC-3 prostate
SF-268 CNS = test system: SF-268 CNS
MOLT-4 leukemia = test system: MOLT-4 leukemia
OVCAR-8 ovarian = test system: OVCAR-8 ovarian
SF-295 CNS = test system: SF-295 CNS
HOP-62 NSCLC = test system: HOP-62 NSCLC
SK-MEL-5 melanoma = test system: SK-MEL-5 melanoma
LOX IMVI melanoma = test system: LOX IMVI melanoma
NCI-H226 lung = test system: NCI-H226 lung
MDA-N = test system: MDA-N
MALME-3M melanoma = test system: MALME-3M melanoma
NCI/ADR-RES ovarian = test system: NCI/ADR-RES ovarian
UACC-62 melanoma = test system: UACC-62 melanoma
MDA-MB-435 = test system: MDA-MB-435
COLO 205 colon = test system: COLO 205 colon
HS 578T breast = test system: HS 578T breast
A549 NSCLC = test system: A549 NSCLC
SN12C renal = test system: SN12C renal
MDA-MB-231 breast = test system: MDA-MB-231 breast
HOP-92 NSCLC = test system: HOP-92 NSCLC
SK-MEL-28 melanoma = test system: SK-MEL-28 melanoma
OVCAR-5 ovarian = test system: OVCAR-5 ovarian
K-562 leukemia = test system: K-562 leukemia
HCT-116 colon = test system: HCT-116 colon
BT-549 breast = test system: BT-549 breast
OVCAR-3 ovarian = test system: OVCAR-3 ovarian
IGROV1 ovarian = test system: IGROV1 ovarian
SK-MEL-2 melanoma = test system: SK-MEL-2 melanoma
HCT-15 colon = test system: HCT-15 colon
KM12 colon = test system: KM12 colon
SW-620 colon = test system: SW-620 colon
CAKI-1 renal = test system: CAKI-1 renal
RPMI-8226 leukemia = test system: RPMI-8226 leukemia
M14 melanoma = test system: M14 melanoma
ACHN renal = test system: ACHN renal
EKVX NSCLC = test system: EKVX NSCLC
CCRF-CEM leukemia = test system: CCRF-CEM leukemia
786-0 renal = test system: 786-0 renal
NCI-H460 lung = test system: NCI-H460 lung
SR leukemia = test system: SR leukemia
MCF7 breast = test system: MCF7 breast
SF-539 CNS = test system: SF-539 CNS
HCC-2998 colon = test system: HCC-2998 colon
HL-60(TB) leukemia = test system: HL-60(TB) leukemia

Measured: TGI

Cc1ccccc1N=Nc1cc(C)c(N=Nc2c(O)ccc3ccccc23)cc1C
not listed: NCI-H460 lung | SR leukemia | MCF7 breast | SF-539 CNS | HCC-2998 colon | HL-60(TB) leukemia
> 100 µM: all other assays above

COc1ccccc1N1C(=O)C2C3c4ccccc4C(OC(C)=O)(c4ccccc43)C2C1=O (stereo not drawn)
52.1 µM: HS 578T breast
38.8 µM: SNB-75 CNS
not listed: NCI-H522 lung | MDA-MB-435 | HOP-92 NSCLC | SK-MEL-2 melanoma
> 100 µM: all other assays above
